Experimental data: US7109245B2, “Vasoconstrictor cannabinoid analogs” (priority 2001, dated 2006)
“Also recorded” adds a separate entry of the source. Like-named read-outs stand apart in the source and are kept apart here.

Key:
[1] = test system: normal rats and mice, CB1 knockout mice, CB1/CB2 double knockout mice; settings: cited from earlier work
mesenteric arteries [2] = settings: cited from earlier work; for dilation of isolated mesenteric arteries: normal rats and mice, CB1 knockout and CB1/CB2 double knockout mice
rats and mice = settings: in vivo; cited from earlier work
ICR mice = assay: Blood pressure of pentobarbital-anesthetized ICR mice (femoral artery cannula); type: in vivo, mouse
Source text: By way of example, ICR mice were anesthetized with pentobarbital, and polyethylene cannulae were inserted into the femoral artery and vein for monitoring blood pressure and injecting drugs, respectively. Blood pressure was monitored directly by connecting the arterial cannula to a pressure transducer and physiograph.

[3] = test system: Rat isolated mesenteric branch arteries; assay: Vasorelaxation of rat isolated mesenteric branch arteries precontracted with phenylephrine, wire myograph
Method: Arteries were mounted in a wire myograph, and precontracted with phenylephrine. Relaxation is expressed as % of the phenylephrine-induced vasoconstrictor tone, 0% representing maximal relaxation.
Rat isolated mesenteric branch arteries (˜200 μm in diameter) were precontracted with phenylephrine and measurements were recorded with a wire myograph.

mesenteric arteries [4] = assay: Mesenteric vasodilator response
[5] = molecular target: brain cannabinoid (CB1) receptor (Homo sapiens, UniProt P21554); settings: cited from earlier work
Sequence of brain cannabinoid (CB1) receptor (P21554 whole entry, species assumed): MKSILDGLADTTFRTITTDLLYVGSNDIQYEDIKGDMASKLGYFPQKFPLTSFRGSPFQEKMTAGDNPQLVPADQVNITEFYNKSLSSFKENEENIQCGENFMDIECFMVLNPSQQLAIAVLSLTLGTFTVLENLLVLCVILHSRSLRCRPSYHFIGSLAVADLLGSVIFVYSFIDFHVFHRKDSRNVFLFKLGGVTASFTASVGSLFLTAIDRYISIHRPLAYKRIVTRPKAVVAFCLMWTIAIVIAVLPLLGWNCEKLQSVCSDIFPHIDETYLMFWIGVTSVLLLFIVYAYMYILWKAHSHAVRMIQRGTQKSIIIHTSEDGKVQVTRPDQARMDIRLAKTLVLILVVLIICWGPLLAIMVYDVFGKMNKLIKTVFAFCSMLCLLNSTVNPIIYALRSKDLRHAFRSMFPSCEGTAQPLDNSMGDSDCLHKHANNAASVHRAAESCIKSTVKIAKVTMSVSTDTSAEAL

LPS-induced hypotension = LPS-induced hypotension in anesthetized mice; type: in vivo, mouse
Source text: Endotoxin was used to induce hypotension in control mice as well as in mice deficient in CB1 or both CB1 and CB2 receptors.

[6] = test system: mesenteric branch arteries isolated from wild-type and CB1 receptor deficient mice; assay: Calcium-induced relaxation of mouse isolated mesenteric branch arteries precontracted with norepinephrine; settings: 10 μM O-1918

SMILES: CCCCCCC(C)(C)c1cc(O)c2c(c1)OC(C)(C)[C@@H]1CC=C(CO)C[C@@H]21 [HU-210]
- hypotensive effect in CB1 receptor deficient mice ([1]; CB1 receptor deficient mice): absent

SMILES: C=C(C)[C@@H]1CCC(C)=C[C@H]1c1c(O)cc(CCCCC)cc1O [cannabidiol]
- antagonism of vasodilator effect of Abn-cbd (mesenteric arteries [2]; mesenteric): able to antagonize the vasodilator effect of Abn-cbd
- dilation of isolated mesenteric arteries (mesenteric arteries [2]): does not elicit mesenteric vasodilation
- neurobehavioral effects (rats and mice): devoid of neurobehavioral effects

SMILES: C=C(C)[C@@H]1CCC(C)=C[C@H]1c1c(O)cc(O)cc1CCCCC [Abn-cbd, abnormal cannabidiol]
- effect on blood pressure (ICR mice; intravenous injection of 10 mg/kg Abn-cbd): transient drop in blood pressure followed by a brief increase and then a more prolonged, significant decrease in pressure
- type of agonism in vasorelaxation [3]: full agonist
- EC50 ([3]; Abn-cbd alone, read-out: vasorelaxation EC50): 3.3 ± 0.5 µM
- EC50 ([3]; in the presence of 10 μM O-1918, read-out: vasorelaxation EC50 in the presence of O-1918): 26 ± 10 µM
- vasodilator response in presence of L-NAME and indomethacin (mesenteric arteries [4]; 100 μM L-NAME and 10 μM indomethacin): remains unchanged
- vasodilation in presence of capsazepine (mesenteric arteries [4]; bolus injection of 4 mg Abn-cbd, 5 μM capsazepine): elicited the same long lasting vasodilation
- dilation of isolated mesenteric arteries (mesenteric arteries [2]): dilate isolated mesenteric arteries
- binding to CB1 receptor [5]: does not bind to CB1 receptors
- neurobehavioral effects (rats and mice): does not elicit cannabinoid-like neurobehavioral effects
- effect on blood pressure ([1]; normal rats and mice, CB1 knockout and CB1/CB2 double knockout mice): lower blood pressure

SMILES: Cc1c(C(=O)NN2CCCCC2)nn(-c2ccc(Cl)cc2Cl)c1-c1ccc(Cl)cc1 [SR141716A]
- inhibition of LPS-induced hypotension (LPS-induced hypotension; pretreatment 3 mg/kg SR141716A, wild-type mice, CB1 deficient and CB1/CB2 deficient mice, FIG. 2): inhibited; also recorded: could be prevented

SMILES: C=C(C)C1CCC(C)=CC1c1c(OC)cc(C)cc1OC (stereo not shown) [O-1918]
- antagonism of hypotensive effect of Abn-cbd (ICR mice; 10 mg/kg O-1918, 10 min before 10 mg/kg Abn-cbd, FIG. 1A): the prolonged hypotensive phase of the effect of Abn-cbd was absent
- effect on blood pressure of the antagonist alone (ICR mice; 10 mg/kg O-1918 injected alone): did not influence blood pressure
- antagonism of hypotensive effect of HU-210 (CB1/CB2 agonist) (ICR mice; FIG. 1B): did not antagonize the hypotensive effect of HU-210
- prevention of LPS-induced hypotension (LPS-induced hypotension; 10 mg/kg O-1918, normal anesthetized mice, 100 mg/kg LPS): prevent the hypotension
- inhibition of LPS-induced hypotension (LPS-induced hypotension; pretreatment 1 to 10 mg/kg O-1918, ICR mice, 100 ng/kg LPS i.v., FIG. 3): dose-dependently inhibited
- inhibition of calcium-induced relaxation [6]: inhibited the calcium-induced relaxation
- inhibition of vasorelaxation caused by CGRP ([3]; 10 μM O-1918): did not inhibit the vasorelaxation
- inhibition of vasorelaxation caused by carbachol ([3]; 10 μM O-1918): did not inhibit the vasorelaxation
- effect on vascular tone ([3]; concentrations up to 30 μM): did not alter vascular tone
- shift of dose-response curve to Abn-cbd ([3]; preincubation with 1–10 μM O-1918, FIG. 4): progressively right-shifted; also recorded: concentration-dependent inhibition of the relaxing effect of Abn-cbd
